| melting point [°C] | Structure (SMILES) |
| --- | --- |
| 205 to 207 | O=C(Nc1c(C(O)(C(F)(F)F)C(F)(F)F)ccc2ccccc12)c1cc(Cl)cc(Cl)c1 |
| 95 | CC(C)(C)OC(=O)COc1cc(NC(=O)OC(C)(C)C)c(NC(=O)CC(=O)c2cccc(C#N)c2)cc1C#Cc1ccccc1 |
| 67 to 70 | CC(C)(CN)c1ccc(C(=O)NCCc2ccc3[nH]cc(C(=N)N)c3c2)cc1 |
| 161 to 162 | COc1ccc2c(c1)C(=O)c1c-2c(N2CCN(C(=O)CCNCCN(C)C)CC2)nc2ccccc12 |
| 249 to 250 | CC1(C)Oc2cc([N+](=O)[O-])ccc2[C@@H](N2Cc3ccccc3C2=O)[C@@H]1O (relative stereo) |
| 133 to 138 | CCOC1CN(CC=CC(=O)Nc2cc3c(Nc4cccc(Br)c4)ncnc3cc2OC)CC(OCC)O1 (stereo not drawn) |
| 95 to 97 | CCOC(=O)C1=C(C)NC(SCc2ccc(OC)cc2)=NC1c1cccc([N+](=O)[O-])c1 (stereo not drawn) |
| 81 to 82 | Cc1c(NCCNCC(O)COc2ccccc2)n(C)c(=O)n(C)c1=O (stereo not drawn) |
| 223 to 225 | O=c1[nH]c(=Cc2ccc(OCc3ccccc3)cn2)c(=O)[nH]c1=Cc1ccccc1 |
| 160 to 162 | O=C1c2ccc(O)cc2CCC1Cc1ccccc1 (stereo not drawn) |
| 76 to 82 | Cc1cccc2c1C(=O)C(COC(=O)Nc1ccccc1)(COC(=O)Nc1ccccc1)CS2=O (stereo not drawn) |
| 316 to 318 | CC(C)Oc1ccccc1-c1nc2ccc(C(=O)O)cc2c(=O)[nH]1 |
| 92.5 to 94 | CCOC(=O)c1cc(C)n(-c2cccc(C)c2)c1-c1ccccc1 |
| 138 to 142 | CCOC(=O)C(=O)Nc1nc2c(OC)ccc(-c3ccccc3)c2s1 |
| 151 to 161 | CCc1c(-c2ccc(OCc3ccccc3)cc2)c2c(C(=O)O)c(C(=O)O)c3c(OCc4ccccc4)ccc1n32 |
| 62 to 64 | CCCC[C@H](NC(=O)[C@H](CC(C)C)NC(=O)OCc1ccccc1)C(=O)CCCc1ccco1 |
| 114 to 116 | c1ccc(C(c2ccccc2)N2CCN(Cc3cscn3)CC2)cc1 |
| 113 to 115 | O=S(=O)(Nc1ccc2c(OCc3cccc(Br)c3)cccc2c1)C(F)(F)F |
| 123 to 124 | CC(C)CC1(CC(=O)NO)CCN(CCc2ccccc2)C1=O (stereo not drawn) |
| 136 to 137 | CCCCc1ccc(C(=O)O)c2ccccc12 |
| > 200 | O=C(Nc1cccc(-c2ccnc3c(C(=O)c4cccs4)cnn23)c1)OCc1cccnc1 |

| melting point [°C] | Structure (SMILES) |
| --- | --- |
| 112 to 113 | CC(=O)OCC(COC(C)=O)(NC(=O)OC(C)(C)C)C(=O)c1ccccc1 |
| 116 to 118 | O=C(O)C(Cc1ccccc1)Nc1cc(-c2ccc(Cc3ccccc3)cc2)ncn1 (stereo not drawn) |
| 136 to 137 | FC(F)(F)Oc1ccc(-c2ccc(OCc3ccccc3)cc2)cc1 |
| 198 | O=C1CC(c2cccc(-n3cnnc3)c2)=Nc2ccc(-c3ccccc3F)cc2N1 |
| 97 to 98 | CCc1nc(-c2cc3cc(OCCNC[C@H](O)COc4ccccc4)ccc3o2)no1 |
| 146 | COc1ccc(/C=C/c2nc3ccccc3n2-c2ccccn2)cc1 |
| 185 to 224 | CC(=O)NC1(C)Cc2ccccc2C(C)c2ccccc2C1 (stereo not drawn) |
| 66 | COC(=O)CCc1cc2nc(Cl)ccc2n1S(=O)(=O)c1ccc2c(c1)CCN2C(C)=O |
| 171 to 172 | N#Cc1ccc2oc(CCc3ccc(C(=O)On4nnc5ccccc54)cc3)cc2c1 |
| 147 to 150 | CC(COc1ccc(C(N)=O)c(O)c1)NCC(O)COc1ccc(NS(C)(=O)=O)cc1 (stereo not drawn) |
| 185 to 186 | CCOC(=O)C(=O)Nc1nc2ccccc2s1 |
| 179 to 187 | CCCCc1nc2ccccn2c(=O)c1-c1ccc(NC(=O)[C@@H]2CCCN2C(=O)OC(C)(C)C)cc1 |
| 130 to 132 | Cc1ccccc1S(=O)(=O)NC1CCc2sccc2C1 (stereo not drawn) |
| 159 to 162 | CCOC(=O)Nc1ccc(C(=O)OC)cc1 |
| 114 to 116 | O=C(O)c1ccc(OCCOc2ccccc2)cc1O |
| 61 to 65 | COC(=O)CCCC#Cc1cc(Cl)ccc1NS(=O)(=O)c1ccc2nc(N)sc2c1 |
| 207 | CC(C)c1ccc(C(=O)C2=C(O)C(=O)N(c3cccn(C)c3=O)C2c2ccc(OC(F)(F)F)cc2)cc1 (stereo not drawn) |
| 245 | CCOC(=O)c1ccc(C(=O)NS(=O)(=O)c2ccc(CCNC(C)=O)cc2)cn1 |
| 67.5 to 68 | CN1CCN(c2cccc3ccc(OCc4cccc(Cl)c4)cc23)CC1 |
| 125 to 127 | Cc1ccc(S(=O)(=O)OC2CCc3[nH]c4ccc(C)cc4c3C2)cc1 (stereo not drawn) |

The next lines start with the molecule.

| Structure (SMILES) | melting point [°C] |
| --- | --- |
| OC(CCCN1CCCCC1)c1ccc2c(c1)Cc1cc(C(O)CCCN3CCCCC3)ccc1O2 (stereo not drawn) | 145 to 146 |
| CC(C)(C)OC(=O)N1CCC(CCOc2ccc(C=NO)cc2)CC1 | 114 to 116 |
| CSC(=S)N1CCN(Cc2ccccc2N)CC1 | 110 to 114 |
| CS(=O)(=O)c1cc(C(=O)O)cc([N+](=O)[O-])c1Cl | 190 to 194 |
| CCCc1c(OCCCCCC(=O)NCCc2cccnc2)ccc(C(C)=O)c1O | 76 to 78 |
| CN(C)C=C1CCc2ccn(C)c2C1=O | 49 to 51 |
| CCOC(=O)C=CC=Cc1ccc(F)c([N+](=O)[O-])c1 | 106 to 107 |
| CC1(C)Cc2c(Cl)c([N+](=O)[O-])cc(C(=O)O)c2O1 | 260 to 262 |
| CCOC(=O)c1c[nH]c2cccc(O)c12 | 151 to 153 |
| CS(=O)(=O)c1ccc(C(=O)N[C@H]2CC[C@H](CCN3CCN(c4nccc5c4OCC5)CC3)CC2)s1 | 212 |
| Nc1ccc(-c2cnn3c(O)ncnc23)cc1 | > 300 |
| Cc1ccc2c(c1)N=C(N1CCC(C)CC1)c1cccc3c1N2CC3 | 194 to 196 |
| Nc1nc(Cl)cc(NCC2(CO)COC2)n1 | 185 to 186 |
| CC1=C(C(=O)Nc2cc(C(=O)OC(C)C)c(C)cc2F)SCCO1 | 119 to 122 |
| Cn1c(CC(=O)O)ccc1C(=O)c1ccc(C#N)cc1 | 196 to 198 |
| O=C(O)C(=CNc1ccc(O)c(=O)cc1)C(=O)O | 175 to 176 |
| NS(=O)(=O)Cc1cccc2c1C(=O)OC2 | 192 to 195 |
| CC(O)CN1C(C)(C)CC(O)CC1(C)C (stereo not drawn) | 97 to 98 |
| CC(=O)c1ccc(C(=O)OC(C)(C)C)cc1 | 57.5 to 58.8 |
| CN(C)C=Nc1c(I)c(=O)n(Cc2ccccc2)c(=O)n1C | 186 |
| C#Cc1cccc(Nc2c(C#N)cnc3ccc(OCCOC)c(OCCOC)c23)c1 | 150 to 153 |

| Structure (SMILES) | melting point [°C] |
| --- | --- |
| CC(=O)N1Cc2cnc(C)n2-c2ccc(Cl)cc2C1c1ccccc1F (stereo not drawn) | 185 to 186 |
| CCCCCCCCCCc1nnn(CC(=O)O)n1 | 83 to 86 |
| CNC(=O)c1cc(-c2ccc(OC)cc2)nn(C)c1=O | 150 to 151 |
| N#CN=C(NCCC(=O)O)Nc1ccc2nonc2c1 | 92 |
| CCn1nc(C)c2c1C(=O)Nc1ccccc1N2C(=O)CN1CCN(C)CC1 | 145 to 146 |
| CNC(=O)[C@@H]1C=CCN1C(=O)OC(C)(C)C | 47 to 48 |
| O=C(O)Cc1ccc(O)c(Cl)c1Cl | 105 to 106 |
| Cc1c(C)c2c(c(C)c1NC(=O)CC(C)(C)C)C(c1ccc(C(C)O)cc1)CO2 (stereo not drawn) | 144 to 145 |
| CN(C)C1CCC(c2cc3ccccc3c(=O)[nH]2)CC1 (stereo not drawn) | 256 to 258 |
| CC12CCC(O)CC1CCC1C2CCC2(C)C(c3ccnnc3)CCC12O (stereo not drawn) | 210 to 213 |
| O=C(O)C=Cc1cccc2nnsc12 | 199 to 202 |
| CCOc1ccc2[nH]cc(CC(C)(C(=O)OC)[N+](=O)[O-])c2c1 (racemic) | 80 to 82 |
| CNC(=O)Oc1ccc(NS(C)(=O)=O)c(C)c1 | 167 to 169 |
| Cc1ccc(CON2C(C)(C)CC(O)CC2(C)C)cc1 | 92.5 to 93 |
| CCCCCNCCC1CCCC1CCCCCCC(=O)O (stereo not drawn) | 107 to 108 |
| CN(C)C1(c2ccccc2)CCC(=CC(=O)N2CCC(c3c[nH]c4ccccc34)C2)CC1 (stereo not drawn) | 94 to 97 |
| CCCCc1nc2c(N)nc3cccnc3c2n1CCCCN | 212 to 213 |
| CC(=N)Nc1cccc(O)c1 | 115 to 118 |
| CCOc1nc(N)nc(C2CC2)n1 | 103 to 106 |
| O=C1NC(=O)C(SCCO)=C1SCCO | 46 to 50 |
| Cc1nc2cnc3ccccc3c2s1 | 95.5 to 97.5 |

| Structure (SMILES) | melting point [°C] |
| --- | --- |
| ON=C1CCc2c1sc1c2CCCC1 | 174 to 176 |
| Fc1ccc(-c2cc(N3CCN(c4ccc(F)cc4)CC3)nc3c2CCCCCC3)cc1 | 130 to 131 |
| N#Cc1ccc(NCCCN2C3CCC2CNC3)cc1 | 44 to 46 |
| CC1=C(CO)C(C)(C)CCC1=NO | 152 to 155 |
| CN1Cc2c(C#CC(C)(C)C)ncn2-c2ccccc2C1=O | 148 to 150 |
| CNC(=S)NCCCCCC1CCSS1 (stereo not drawn) | 64 to 65 |
| CC(OC1CCCCO1)C1CCC2C3CC=C4CC(O)CC(O)C4(C)C3CCC12C (stereo not drawn) | 122 to 124 |
| COC(=O)CCn1c(C)c(Cn2ccnc2)c2cc(CCC(=O)O)ccc21 | 134 to 137 |
| Cn1nc(N2c3cccc(F)c3CC2C(=O)N2CCCCCC2)ccc1=O (stereo not drawn) | 211 to 213 |
| CN1CCN(c2ccc(/C=C/c3cc(/C=C/c4ccc5cc[nH]c5c4)[nH]n3)cc2)CC1 | 192 to 198 |
| CCOC(=O)c1cnc2nn(C)cc2c1NC(C)CC (stereo not drawn) | 132 to 134 |
| Cc1ccc(S(=O)(=O)NN=CC(=O)Cl)cc1 | 100 to 110 |
| CC(=C1SCCS1)c1ccc(F)cc1 | 27 to 31 |
| O=C(Cl)c1c(Cl)c(Cl)c(Cl)c(Cl)c1CCl | 77 to 78 |
| Brc1c(C2=NOCCS2)sc2ccccc12 | 80 to 85 |
| CNc1nnc(-c2ccc3occ(-c4ccccc4Cl)c3c2)o1 | 205 to 206 |
| CCCn1nnn(-c2cc(OC(C)=O)c(Cl)cc2Cl)c1=O | 91 to 92 |
| Cc1c(Br)c(=O)c(-c2ccc(Cl)cc2)c(C)n1C | 264 to 266 |
| COc1cc(-c2nc(-c3ccc(N(C)C)cc3)c(-c3ccc(N(C)C)cc3)[nH]2)cc(OC)c1O | 258 to 260 |
| O=C1O[C@@H](Cn2ccnn2)CN1c1ccc(-c2ccc(C(O)C3CC3)nc2)c(F)c1 (stereo partly drawn) | 160 to 163 |

From a melting point compilation (Tetko et al.; mined from patent text by program, amines drawn as free bases though some values may be those of a salt)
